Assay results: patent publication US10457691B2, “Macrocyclic kinase inhibitors and uses thereof” (Dana-Farber Cancer Institute, Inc., priority 2014, dated 2019)

What was measured:
Assay type in all cases: biochemical
Conditions in all cases: read-out: Activity of the protein kinase when treated with compound I-1 (% control)
CK1γ2 = CK1γ2 (Homo sapiens, UniProt P78368); test: Protein kinase assay ([γ-32P] ATP), CK1γ2
Experimental: (§1) In another set of experiments, the activities of the compounds described herein against various protein kinases were determined according to the methods reported in Hastie et al., Nature Protocols, 2006, 1, 968-971.
(§2) Enzyme dilution buffer. This buffer consisted of 50 mM Tris-HCl, pH 7.5, 0.1 mM EGTA, 1 mg ml^−1 bovine serum albumin and 0.1% (vol/vol) 2-mercaptoethanol.
(§3) 10× concentrated assay buffer. An assay buffer of 500 mM Tris-HCl, pH 7.5, 1 mM EGTA, and 100 mM magnesium acetate was used for assay of a wide variety of protein kinases. In some experiments, other cofactors were included (e.g., calcium ions and calmodulin were included for assay of calcium-calmodulindependent protein kinases).
(§4) 1 mM [γ-^32P] ATP. The specific activity of the [γ-^32P] ATP solution was 1×10^5 to 1×10^6 c.p.m. per nmol depending on what was needed to produce an optimal signal/noise ratio. […] To measure the concentration of ATP, a sample of such a stock solution was diluted to 20 μM, and the absorbance of the diluted sample was measured at 259 nm. The absorbance of a 20-μM stock solution of ATP at 259 nm was about 0.31. […] ATP to produce a radioactivity of 1×10^5 to 1×10^6 c.p.m. per nmol. […]
(§5) 13) Measure radioactivity in the samples by Cerenkov counting (e.g., without liquid scintillation fluid) in a liquid scintillation counter using a “^32P program”. […]

DAPK1 = DAPK1 (Homo sapiens, UniProt P53355); test: Protein kinase assay ([γ-32P] ATP), DAPK1
Experimental: as §1, §2, §3, §4, §5

DYRK2 = DYRK2 (Homo sapiens, UniProt Q92630); test: Protein kinase assay ([γ-32P] ATP), DYRK2
Experimental: as §1, §2, §3, §4, §5

EPH-A2 = EPH-A2 (Homo sapiens, UniProt P29317); test: Protein kinase assay ([γ-32P] ATP), EPH-A2
Experimental: as §1, §2, §3, §4, §5

HER4 = HER4 (Homo sapiens, UniProt Q15303); test: Protein kinase assay ([γ-32P] ATP), HER4
HER4, sequence (Q15303 26-1308): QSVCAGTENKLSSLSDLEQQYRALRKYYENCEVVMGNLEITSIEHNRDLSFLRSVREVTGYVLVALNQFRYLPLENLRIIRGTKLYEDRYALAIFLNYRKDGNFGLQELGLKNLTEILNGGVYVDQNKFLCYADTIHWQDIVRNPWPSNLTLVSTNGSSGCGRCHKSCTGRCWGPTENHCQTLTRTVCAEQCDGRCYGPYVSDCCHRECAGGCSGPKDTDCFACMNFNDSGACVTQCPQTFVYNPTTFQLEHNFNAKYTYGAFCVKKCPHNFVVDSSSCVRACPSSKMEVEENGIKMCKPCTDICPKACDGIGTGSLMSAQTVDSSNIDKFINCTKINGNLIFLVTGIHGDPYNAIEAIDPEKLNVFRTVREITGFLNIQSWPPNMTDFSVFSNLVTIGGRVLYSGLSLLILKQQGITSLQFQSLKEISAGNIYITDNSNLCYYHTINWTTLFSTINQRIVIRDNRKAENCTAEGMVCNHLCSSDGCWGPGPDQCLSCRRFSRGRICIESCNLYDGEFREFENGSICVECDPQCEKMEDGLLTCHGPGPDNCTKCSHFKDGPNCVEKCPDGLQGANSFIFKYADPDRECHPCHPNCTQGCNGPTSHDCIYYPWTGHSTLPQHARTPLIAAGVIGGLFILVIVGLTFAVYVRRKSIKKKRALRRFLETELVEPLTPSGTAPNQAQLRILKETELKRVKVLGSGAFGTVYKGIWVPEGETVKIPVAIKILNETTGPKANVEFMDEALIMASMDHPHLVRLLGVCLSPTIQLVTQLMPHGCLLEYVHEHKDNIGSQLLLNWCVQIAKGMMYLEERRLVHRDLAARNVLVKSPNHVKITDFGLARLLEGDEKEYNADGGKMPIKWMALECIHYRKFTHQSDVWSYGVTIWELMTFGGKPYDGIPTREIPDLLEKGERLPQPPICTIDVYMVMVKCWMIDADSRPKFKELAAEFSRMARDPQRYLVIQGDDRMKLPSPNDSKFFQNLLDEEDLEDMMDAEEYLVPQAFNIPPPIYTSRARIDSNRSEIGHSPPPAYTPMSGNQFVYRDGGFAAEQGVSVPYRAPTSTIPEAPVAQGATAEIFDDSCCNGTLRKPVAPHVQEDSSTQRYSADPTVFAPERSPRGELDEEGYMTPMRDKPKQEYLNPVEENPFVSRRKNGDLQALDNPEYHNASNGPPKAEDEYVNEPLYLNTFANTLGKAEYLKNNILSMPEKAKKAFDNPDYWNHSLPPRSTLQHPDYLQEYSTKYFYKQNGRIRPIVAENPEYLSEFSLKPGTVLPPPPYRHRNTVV
Experimental: as §1, §2, §3, §4, §5

IRAK4 = IRAK4 (Homo sapiens, UniProt Q9NWZ3); test: Protein kinase assay ([γ-32P] ATP), IRAK4
IRAK4, sequence (Q9NWZ3 whole entry): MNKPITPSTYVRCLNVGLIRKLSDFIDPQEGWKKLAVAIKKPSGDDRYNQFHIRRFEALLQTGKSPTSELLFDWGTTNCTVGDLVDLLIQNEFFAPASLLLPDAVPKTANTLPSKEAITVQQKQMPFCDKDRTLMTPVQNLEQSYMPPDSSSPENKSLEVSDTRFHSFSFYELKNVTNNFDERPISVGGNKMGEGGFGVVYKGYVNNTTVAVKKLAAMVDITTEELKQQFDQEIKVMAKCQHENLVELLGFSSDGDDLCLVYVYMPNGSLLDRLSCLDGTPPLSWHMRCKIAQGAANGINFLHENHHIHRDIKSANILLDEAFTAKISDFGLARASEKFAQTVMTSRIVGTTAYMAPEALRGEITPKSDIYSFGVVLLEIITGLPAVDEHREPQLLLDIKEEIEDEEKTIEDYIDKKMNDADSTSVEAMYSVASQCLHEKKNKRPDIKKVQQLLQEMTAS
Experimental: as §1, §2, §3, §4, §5

IRR = IRR (Homo sapiens, UniProt P14616); test: Protein kinase assay ([γ-32P] ATP), IRR
Experimental: as §1, §2, §3, §4, §5

JAK2 = JAK2 (Homo sapiens, UniProt O60674); test: Protein kinase assay ([γ-32P] ATP), JAK2
JAK2, sequence (O60674 whole entry): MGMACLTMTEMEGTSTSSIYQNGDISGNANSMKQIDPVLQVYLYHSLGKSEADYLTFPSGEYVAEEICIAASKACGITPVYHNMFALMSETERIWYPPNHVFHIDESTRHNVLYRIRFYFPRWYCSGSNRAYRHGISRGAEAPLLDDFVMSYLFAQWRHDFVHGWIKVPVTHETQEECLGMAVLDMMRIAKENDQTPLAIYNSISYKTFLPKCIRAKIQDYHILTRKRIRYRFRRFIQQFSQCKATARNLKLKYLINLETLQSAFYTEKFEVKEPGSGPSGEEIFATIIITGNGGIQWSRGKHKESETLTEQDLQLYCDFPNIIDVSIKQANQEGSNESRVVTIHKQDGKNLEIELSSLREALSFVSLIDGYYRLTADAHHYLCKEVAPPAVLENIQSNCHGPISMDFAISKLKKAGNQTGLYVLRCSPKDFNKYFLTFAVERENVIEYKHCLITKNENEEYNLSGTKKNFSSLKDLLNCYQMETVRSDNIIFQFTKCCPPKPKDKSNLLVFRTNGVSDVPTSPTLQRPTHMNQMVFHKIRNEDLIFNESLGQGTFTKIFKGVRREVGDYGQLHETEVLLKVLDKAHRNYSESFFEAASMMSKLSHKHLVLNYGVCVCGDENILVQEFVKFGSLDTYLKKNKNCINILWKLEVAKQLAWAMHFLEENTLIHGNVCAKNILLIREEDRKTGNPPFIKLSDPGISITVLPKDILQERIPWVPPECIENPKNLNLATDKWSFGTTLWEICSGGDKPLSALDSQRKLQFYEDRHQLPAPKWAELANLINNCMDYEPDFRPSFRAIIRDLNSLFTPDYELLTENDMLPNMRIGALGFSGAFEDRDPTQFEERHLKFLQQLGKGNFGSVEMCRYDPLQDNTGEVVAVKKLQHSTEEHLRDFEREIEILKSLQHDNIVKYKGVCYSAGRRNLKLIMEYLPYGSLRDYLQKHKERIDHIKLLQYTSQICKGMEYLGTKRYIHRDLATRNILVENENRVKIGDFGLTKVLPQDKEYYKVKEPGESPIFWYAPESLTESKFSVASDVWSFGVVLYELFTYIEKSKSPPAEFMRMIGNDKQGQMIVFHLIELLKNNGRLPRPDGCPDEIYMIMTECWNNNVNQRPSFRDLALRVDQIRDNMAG
Experimental: as §1, §2, §3, §4, §5

JNK1 = JNK1 (Homo sapiens, UniProt P45983); test: Protein kinase assay ([γ-32P] ATP), JNK1
Experimental: as §1, §2, §3, §4, §5

MNK1 = MNK1 (Homo sapiens, UniProt Q9BUB5); test: Protein kinase assay ([γ-32P] ATP), MNK1
MNK1, sequence (Q9BUB5 whole entry): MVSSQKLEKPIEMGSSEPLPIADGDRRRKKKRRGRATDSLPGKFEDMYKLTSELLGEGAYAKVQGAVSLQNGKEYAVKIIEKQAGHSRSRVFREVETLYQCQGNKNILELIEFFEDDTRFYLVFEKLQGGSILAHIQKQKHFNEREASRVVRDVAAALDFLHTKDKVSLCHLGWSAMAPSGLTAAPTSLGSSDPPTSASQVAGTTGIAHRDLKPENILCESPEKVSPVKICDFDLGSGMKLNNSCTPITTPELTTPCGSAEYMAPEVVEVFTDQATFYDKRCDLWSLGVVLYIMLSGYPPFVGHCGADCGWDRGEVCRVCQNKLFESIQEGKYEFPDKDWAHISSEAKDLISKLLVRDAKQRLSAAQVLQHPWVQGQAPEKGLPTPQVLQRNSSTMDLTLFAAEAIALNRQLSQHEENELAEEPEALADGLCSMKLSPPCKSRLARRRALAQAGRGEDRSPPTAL
Experimental: as §1, §2, §3, §4, §5

MST2 = MST2 (Homo sapiens, UniProt Q13188); test: Protein kinase assay ([γ-32P] ATP), MST2
Experimental: as §1, §2, §3, §4, §5

MST3 = MST3 (Homo sapiens, UniProt Q9Y6E0); test: Protein kinase assay ([γ-32P] ATP), MST3
Experimental: as §1, §2, §3, §4, §5

NEK2a = NEK2a (Homo sapiens, UniProt P51955); test: Protein kinase assay ([γ-32P] ATP), NEK2a
Experimental: as §1, §2, §3, §4, §5

PKD1 = PKD1 (Homo sapiens, UniProt Q15139); test: Protein kinase assay ([γ-32P] ATP), PKD1
Experimental: as §1, §2, §3, §4, §5

RIPK2 = RIPK2 (Homo sapiens, UniProt O43353); test: Protein kinase assay ([γ-32P] ATP), RIPK2
RIPK2, sequence (O43353 whole entry, species assumed): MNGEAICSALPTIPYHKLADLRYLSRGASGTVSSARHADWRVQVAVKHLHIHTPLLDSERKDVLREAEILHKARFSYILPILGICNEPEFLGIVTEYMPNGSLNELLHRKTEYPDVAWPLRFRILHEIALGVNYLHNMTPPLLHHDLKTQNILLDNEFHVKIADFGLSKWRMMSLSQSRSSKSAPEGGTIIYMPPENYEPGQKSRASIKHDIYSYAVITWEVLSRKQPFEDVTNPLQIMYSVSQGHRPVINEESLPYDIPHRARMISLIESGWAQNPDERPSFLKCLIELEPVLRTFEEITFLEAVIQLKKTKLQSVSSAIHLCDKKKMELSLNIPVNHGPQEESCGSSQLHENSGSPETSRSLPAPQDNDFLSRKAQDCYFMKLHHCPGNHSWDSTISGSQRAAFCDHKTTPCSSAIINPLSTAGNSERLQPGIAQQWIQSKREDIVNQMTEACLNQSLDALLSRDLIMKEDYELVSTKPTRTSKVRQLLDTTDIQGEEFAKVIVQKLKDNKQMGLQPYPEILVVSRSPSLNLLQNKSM
Experimental: as §1, §2, §3, §4, §5

TrkA = TrkA (Homo sapiens, UniProt P04629); test: Protein kinase assay ([γ-32P] ATP), TrkA
TrkA, sequence (P04629 33-796, species assumed): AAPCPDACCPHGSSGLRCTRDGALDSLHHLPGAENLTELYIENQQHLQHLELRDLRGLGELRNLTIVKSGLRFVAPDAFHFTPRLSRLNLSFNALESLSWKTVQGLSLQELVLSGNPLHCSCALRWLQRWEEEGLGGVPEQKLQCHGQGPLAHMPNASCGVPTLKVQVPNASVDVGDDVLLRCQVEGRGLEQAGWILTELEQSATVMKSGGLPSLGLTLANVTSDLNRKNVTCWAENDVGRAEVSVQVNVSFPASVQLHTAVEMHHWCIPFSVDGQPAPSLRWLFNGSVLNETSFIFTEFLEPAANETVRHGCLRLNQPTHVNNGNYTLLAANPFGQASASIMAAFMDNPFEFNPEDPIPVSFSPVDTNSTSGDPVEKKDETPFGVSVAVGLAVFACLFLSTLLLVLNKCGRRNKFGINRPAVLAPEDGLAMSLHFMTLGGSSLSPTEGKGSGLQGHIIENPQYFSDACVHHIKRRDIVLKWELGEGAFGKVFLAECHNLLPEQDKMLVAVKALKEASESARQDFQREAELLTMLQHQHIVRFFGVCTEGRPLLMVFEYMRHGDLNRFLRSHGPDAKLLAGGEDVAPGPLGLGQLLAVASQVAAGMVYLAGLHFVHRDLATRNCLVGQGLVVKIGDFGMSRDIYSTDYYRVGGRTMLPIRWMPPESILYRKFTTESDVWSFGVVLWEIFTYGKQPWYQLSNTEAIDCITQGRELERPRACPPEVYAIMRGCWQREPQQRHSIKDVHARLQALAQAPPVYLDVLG
Experimental: as §1, §2, §3, §4, §5

TTK = TTK (Homo sapiens, UniProt P33981); test: Protein kinase assay ([γ-32P] ATP), TTK
Experimental: as §1, §2, §3, §4, §5

[1] = 0.1 μM of compound I-1, DMSO control = 100%
[2] = 1 μM of compound I-1, DMSO control = 100%

CK1γ2, sequence (P78368 whole entry): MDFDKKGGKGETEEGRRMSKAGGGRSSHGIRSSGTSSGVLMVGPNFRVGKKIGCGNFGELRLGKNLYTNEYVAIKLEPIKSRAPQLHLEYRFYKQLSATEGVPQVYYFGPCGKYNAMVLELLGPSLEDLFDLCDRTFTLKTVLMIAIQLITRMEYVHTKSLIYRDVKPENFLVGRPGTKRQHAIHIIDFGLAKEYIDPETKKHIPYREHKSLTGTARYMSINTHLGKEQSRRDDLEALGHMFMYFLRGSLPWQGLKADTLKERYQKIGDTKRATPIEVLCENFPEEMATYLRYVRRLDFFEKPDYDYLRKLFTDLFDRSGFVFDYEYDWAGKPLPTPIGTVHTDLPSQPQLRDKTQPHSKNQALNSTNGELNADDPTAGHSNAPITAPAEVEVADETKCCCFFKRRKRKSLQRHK

Compound: Cc1cccc(C)c1NC(=O)N1C/C=C\COc2cccc(c2)Nc2cc1ncn2 [Compound I-1]
- remaining activity at 0.1 µM (CK1γ2; [1]): 96%
- remaining activity at 1 µM (CK1γ2; [2]): 100%
- remaining activity at 0.1 µM (DAPK1; [1]): 99%
- remaining activity at 1 µM (DAPK1; [2]): 85%
- remaining activity at 0.1 µM (DYRK2; [1]): 103%
- remaining activity at 1 µM (DYRK2; [2]): 76%
- remaining activity at 0.1 µM (EPH-A2; [1]): 11%
- remaining activity at 1 µM (EPH-A2; [2]): 5%
- remaining activity at 0.1 µM (HER4; [1]): 100%
- remaining activity at 1 µM (HER4; [2]): 71%
- remaining activity at 0.1 µM (IRAK4; [1]): 92%
- remaining activity at 1 µM (IRAK4; [2]): 86%
- remaining activity at 0.1 µM (IRR; [1]): 98%
- remaining activity at 1 µM (IRR; [2]): 83%
- remaining activity at 0.1 µM (JAK2; [1]): 100%
- remaining activity at 1 µM (JAK2; [2]): 72%
- remaining activity at 0.1 µM (JNK1; [1]): 93%
- remaining activity at 1 µM (JNK1; [2]): 72%
- remaining activity at 0.1 µM (MNK1; [1]): 105%
- remaining activity at 1 µM (MNK1; [2]): 90%
- remaining activity at 0.1 µM (MST2; [1]): 99%
- remaining activity at 1 µM (MST2; [2]): 98%
- remaining activity at 0.1 µM (MST3; [1]): 91%
- remaining activity at 1 µM (MST3; [2]): 87%
- remaining activity at 0.1 µM (NEK2a; [1]): 97%
- remaining activity at 1 µM (NEK2a; [2]): 85%
- remaining activity at 0.1 µM (PKD1; [1]): 63%
- remaining activity at 1 µM (PKD1; [2]): 29%
- remaining activity at 0.1 µM (RIPK2; [1]): 33%
- remaining activity at 1 µM (RIPK2; [2]): 5%
- remaining activity at 0.1 µM (TrkA; [1]): 54%
- remaining activity at 1 µM (TrkA; [2]): 76%
- remaining activity at 0.1 µM (TTK; [1]): 99%
- remaining activity at 1 µM (TTK; [2]): 79%
